# Measurements reported in ChEMBL document CHEMBL2203105, “Structure-related cytotoxic activity of derivatives from kulokekahilide-2, a cyclodepsipeptide in Hawaiian marine mollusk” (Bioorg Med Chem Lett, 2012).
# pIC50: −log10 of the molar value.
# Assays:
# MCF7 = test: Cytotoxicity against human MCF7 cells assessed as cell viability after 72 hrs by celltiter-blue assay; type: functional, cell-based; conditions: MCF7, 72 h
# A549 = test: Cytotoxicity against human A549 cells assessed as cell viability after 72 hrs by celltiter-blue assay; type: functional, cell-based; conditions: A549, 72 h
# K562 = test: Cytotoxicity against human K562 cells assessed as cell viability after 72 hrs by celltiter-blue assay; type: functional, cell-based; conditions: K562, 72 h
# [1] = Chemical stability of the compound in DMSO by NMR analysis; type: physicochemical
Compound,pIC50 (MCF7),pIC50 (A549),pIC50 (K562),Stability [1]
C/C=C(\C)[C@H]1OC(=O)[C@@H](C)NC(=O)[C@H]([C@@H](C)CC)NC(=O)CN(C)C(=O)[C@@H](Cc2ccc(Cl)cc2)N(C)C(=O)[C@H](C)NC(=O)[C@@H](CC(C)C)OC(=O)/C(C)=C/C[C@H](O)[C@@H]1C,11.52,14.00,13.96,–
"C/C=C(\C)[C@@H](OC(=O)[C@@H](C)N)[C@@H](C)C(C/C=C(\C)C(=O)O[C@H](CC(C)C)C(=O)N[C@@H](C)C(=O)N(C)[C@H](Cc1ccccc1)C(=O)N(C)CC(=O)N[C@H](C(=O)O)[C@@H](C)CC)OCSC (single isomer, unassigned)",< 5.00,< 5.00,< 5.00,–
C/C=C(\C)[C@H]1OC(=O)[C@@H](C)NC(=O)[C@H]([C@@H](C)CC)NC(=O)CN(C)C(=O)[C@@H](Cc2ccc(Cl)cc2)N(C)C(=O)[C@H](C)NC(=O)[C@@H](CC(C)C)OC(=O)/C(C)=C/C[C@H](OCSC)[C@@H]1C,8.19,9.14,8.15,–
C/C=C(\C)[C@H]1OC(=O)[C@@H](C)NC(=O)[C@H]([C@@H](C)CC)NC(=O)CN(C)C(=O)[C@@H](Cc2ccccc2)N(C)C(=O)[C@@H](C)NC(=O)[C@@H](CC(C)C)OC(=O)/C(C)=C/C[C@H](OCSC)[C@@H]1C,< 5.00,5.36,5.92,–
C/C=C(\C)[C@H]1OC(=O)[C@@H](C)NC(=O)[C@H]([C@@H](C)CC)NC(=O)CN(C)C(=O)[C@@H](Cc2ccccc2)N(C)C(=O)[C@@H](C)NC(=O)[C@@H](CC(C)C)OC(=O)/C(C)=C/C[C@H](O)[C@@H]1C,5.78,5.98,6.23,–
CC[C@H](C)[C@H](NC(=O)CN(C)C(=O)[C@@H](Cc1ccccc1)N(C)C(=O)[C@H](C)NC(=O)[C@H](O)CC(C)C)C(=O)O,< 5.00,< 5.00,< 5.00,–
C/C=C(\C)[C@@H](O)[C@@H](C)[C@@H]1C/C=C(\C)C(=O)O[C@H](CC(C)C)C(=O)N[C@H](C)C(=O)N(C)[C@H](Cc2ccccc2)C(=O)N(C)CC(=O)N[C@@H]([C@@H](C)CC)C(=O)N[C@H](C)C(=O)O1,5.43,5.97,6.03,–
C/C=C(\C)[C@@H](O)[C@@H](C)[C@@H]1C/C=C(\C)C(=O)O[C@H](CC(C)C)C(=O)N[C@@H](C)C(=O)N(C)[C@H](Cc2ccccc2)C(=O)N(C)CC(=O)N[C@@H]([C@@H](C)CC)C(=O)N[C@H](C)C(=O)O1,9.54,11.85,10.92,Stable
C/C=C(\C)[C@H]1OC(=O)[C@@H](C)NC(=O)[C@H]([C@@H](C)CC)NC(=O)CN(C)C(=O)[C@@H](Cc2ccccc2)N(C)C(=O)[C@H](C)NC(=O)[C@@H](CC(C)C)OC(=O)/C(C)=C/C[C@H](OCSC)[C@@H]1C,8.20,12.72,11.20,–
C/C=C(\C)[C@H]1OC(=O)[C@@H](C)NC(=O)[C@H]([C@@H](C)CC)NC(=O)CN(C)C(=O)[C@@H](Cc2ccccc2)N(C)C(=O)[C@H](C)NC(=O)[C@@H](CC(C)C)OC(=O)/C(C)=C/C[C@H](OC(=O)c2ccccc2)[C@@H]1C,8.54,12.24,8.74,–
C/C=C(\C)[C@@H](O)[C@@H](C)[C@@H]1C/C=C(\C)C(=O)O[C@H](CC(C)C)C(=O)N[C@@H](C)C(=O)N(C)[C@H](Cc2ccc(Cl)cc2)C(=O)N(C)CC(=O)N[C@@H]([C@@H](C)CC)C(=O)N[C@H](C)C(=O)O1,10.60,13.70,12.67,–
C/C=C(\C)[C@H]1OC(=O)[C@@H](C)NC(=O)[C@H]([C@@H](C)CC)NC(=O)CN(C)C(=O)[C@@H](Cc2ccccc2)N(C)C(=O)[C@H](C)NC(=O)[C@@H](CC(C)C)OC(=O)/C(C)=C/C[C@H](O)[C@@H]1C,9.66,11.68,11.51,Stable
